Test results reported in patent publication US20070128217A1 (priority 2003, published 2007).

Assays:
[1] = tested on: antibodies in sera from SARS patients (sera 1a, 1b, 2, 6, 37, 62, London, SARS-yellow, SARS-green); type: binding, human; design: Binding of serum 6 to linear peptides of protein X1 of SARS-CoV Urbani / Binding of serum 37 to linear peptides of protein X1 of SARS-CoV Urbani / Binding of serum 6 to looped/cyclic peptide (PEPSCAN-ELISA) / Binding of serum 37 to looped/cyclic peptide (PEPSCAN-ELISA) / Binding of serum 37 to looped/cyclic peptides of protein X1 of SARS-CoV Urbani / Binding of serum 6 to linear peptides of protein X2 / Binding of serum 37 to linear peptides of protein X2 / Binding of serum 37 to looped/cyclic peptides of protein X2 of SARS-CoV Urbani / Binding of serum 6 to linear peptides of protein M of SARS-CoV Urbani / Binding of serum 37 to linear peptides of protein M of SARS-CoV Urbani / Binding of serum 6 to looped/cyclic peptides of protein M of SARS-CoV Urbani / Binding of serum 37 to looped/cyclic peptides of protein M of SARS-CoV Urbani / Binding of serum 6 to linear peptides of protein X3 of SARS-CoV Urbani / Binding of serum 37 to linear peptides of protein X3 of SARS-CoV Urbani / Binding of serum 37 to looped/cyclic peptides of protein X3 of SARS-CoV Urbani / Binding of serum 6 to linear peptides of protein X4 of SARS-CoV Urbani / Binding of serum 37 to linear peptides of protein X4 of SARS-CoV Urbani / Binding of serum 37 to looped/cyclic peptides of protein X4 of SARS-CoV Urbani / Binding of serum 6 to linear peptides of protein X5 of SARS-CoV Urbani / Binding of serum 37 to linear peptides of protein X5 of SARS-CoV Urbani / Binding of serum 37 to looped/cyclic peptides of protein X5 of SARS-CoV Urbani / Binding of serum 6 to linear peptides of protein N of SARS-CoV Urbani / Binding of serum 37 to linear peptides of protein N of SARS-CoV Urbani / Binding of serum 6 to linear peptide (PEPSCAN-ELISA) / Binding of serum 1a to looped/cyclic peptides of protein N of SARS-CoV Urbani / Binding of serum 1b to looped/cyclic peptides of protein N of SARS-CoV Urbani / Binding of serum 2 to looped/cyclic peptides of protein N of SARS-CoV Urbani / Binding of serum 6 to looped/cyclic peptides of protein N of SARS-CoV Urbani / Binding of serum 37 to looped/cyclic peptides of protein N of SARS-CoV Urbani / Binding of serum 62 to looped/cyclic peptides of protein N of SARS-CoV Urbani / Binding of serum London to looped/cyclic peptides of protein N of SARS-CoV Urbani / Binding of serum SARS-green to looped/cyclic peptides of protein N of SARS-CoV Urbani: unit not given here
[2] = tested on: control sera (pooled serum of ten healthy LUMC hospital workers; commercial negative donor pooled serum from the Dutch bloodbank); type: binding, human; design: Binding of Control serum LUMC to linear peptides / Binding of Control serum Blood-bank to linear peptides / Binding of Control serum LUMC to looped peptides / Binding of Control Serum Blood-Bank to Looped peptides / Binding of Control serum LUMC to linear peptides of the protein M of SARS-CoV Urbani / Binding of Control serum Blood-bank to linear peptides of the protein M of SARS-CoV Urbani / Binding of Control serum LUMC to looped peptides of the protein M of SARS-CoV Urbani / Binding of Control Serum Blood-Bank to Looped peptides of the protein M of SARS-CoV Urbani: unit not given here
[3] = tested on: rabbit serum obtained by immunizing a rabbit with the SARS-CoV strain Frankfurt 1; type: binding; design: Binding of a rabbit serum to linear peptides / Binding of a rabbit serum to looped peptides / Rabbit serum linear peptides / Rabbit serum looped peptides / Binding of a rabbit serum to linear peptides of protein N of SARS-CoV Urbani (Rabbit serum linear peptides) / Binding of a rabbit serum to looped/cyclic peptides of protein N of SARS-CoV Urbani (Rabbit serum looped peptides): unit not given here

Sequence | Binding of Control Serum Blood-Bank to Looped peptides [2] | Binding of Control serum Blood-bank to linear peptides [2] | Binding of Control serum LUMC to linear peptides [2] | Binding of Control serum LUMC to looped peptides [2] | Rabbit serum linear peptides [3] | Rabbit serum looped peptides [3] | Binding of serum 1a to linear peptides of protein X1 of SARS-CoV Urbani [1] | Binding of serum 1a to looped/cyclic peptide (PEPSCAN-ELISA) [1] | Binding of serum 1b to linear peptides of protein X1 of SARS-CoV Urbani [1] | Binding of serum 1b to looped/cyclic peptide (PEPSCAN-ELISA) [1] | Binding of serum 2 to linear peptides of protein X1 of SARS-CoV Urbani [1] | Binding of serum 2 to looped/cyclic peptide (PEPSCAN-ELISA) [1] | Binding of serum 6 to linear peptides of protein X1 of SARS-CoV Urbani [1] | Binding of serum 37 to linear peptides of protein X1 of SARS-CoV Urbani [1] | Binding of serum 62 to linear peptides of protein X1 of SARS-CoV Urbani [1] | Binding of serum London to linear peptides of protein X1 of SARS-CoV Urbani [1] | Binding of serum SARS-green to linear peptides of protein X1 of SARS-CoV Urbani [1] | Binding of serum SARS-yellow to linear peptides of protein X1 of SARS-CoV Urbani [1] | Binding of a rabbit serum to linear peptides [3] | Binding of a rabbit serum to looped peptides [3] | further results
PFHRWHTMVQTCTPN | 0.5 | 0.7 | 0.5 | 0.4 | 0.5 | 0.4 | – | – | – | – | – | – | – | – | – | – | – | – | – | – | Binding of serum 1a to linear peptides of protein X5 of SARS-CoV Urbani [1]: 0.7; Binding of serum 1a to looped/cyclic peptides of protein X5 of SARS-CoV Urbani [1]: 0.6; Binding of serum 1b to linear peptides of protein X5 of SARS-CoV Urbani [1]: 0.7; Binding of serum 1b to looped/cyclic peptides of protein X5 of SARS-CoV Urbani [1]: 0.5; Binding of serum 2 to linear peptides of protein X5 of SARS-CoV Urbani [1]: 0.7; Binding of serum 2 to looped/cyclic peptides of protein X5 of SARS-CoV Urbani [1]: 0.6; Binding of serum 6 to linear peptides of protein X5 of SARS-CoV Urbani [1]: 0.7; Binding of serum 6 to looped/cyclic peptides of protein X5 of SARS-CoV Urbani [1]: 0.3; Binding of serum 37 to linear peptides of protein X5 of SARS-CoV Urbani [1]: 0.7; Binding of serum 37 to looped/cyclic peptides of protein X5 of SARS-CoV Urbani [1]: 0.5; Binding of serum 62 to linear peptides of protein X5 of SARS-CoV Urbani [1]: 0.7; Binding of serum 62 to looped/cyclic peptides of protein X5 of SARS-CoV Urbani [1]: 0.3; Binding of serum London to linear peptides of protein X5 of SARS-CoV Urbani [1]: 0.7; Binding of serum London to looped/cyclic peptides of protein X5 of SARS-CoV Urbani [1]: 0.2; Binding of serum SARS-green to linear peptides of protein X5 of SARS-CoV Urbani [1]: 0.5; Binding of serum SARS-green to looped/cyclic peptides of protein X5 of SARS-CoV Urbani [1]: 0.3; Binding of serum SARS-yellow to linear peptides of protein X5 of SARS-CoV Urbani [1]: 0.4; Binding of serum SARS-yellow to looped/cyclic peptides of protein X5 of SARS-CoV Urbani [1]: 0.3
PKLFIRQEEVQQELY | 0.6 | 0.7 | 0.5 | 0.7 | 0.4 | 0.4 | – | – | – | – | – | – | – | – | – | – | – | – | – | – | Binding of serum 1a to linear peptides of protein X4 of SARS-CoV Urbani [1]: 0.7; Binding of serum 1a to looped/cyclic peptides of protein X4 of SARS-CoV Urbani [1]: 0.8; Binding of serum 1b to linear peptides of protein X4 of SARS-CoV Urbani [1]: 0.6; Binding of serum 1b to looped/cyclic peptides of protein X4 of SARS-CoV Urbani [1]: 0.6; Binding of serum 2 to linear peptides of protein X4 of SARS-CoV Urbani [1]: 0.4; Binding of serum 2 to looped/cyclic peptides of protein X4 of SARS-CoV Urbani [1]: 0.5; Binding of serum 6 to linear peptides of protein X4 of SARS-CoV Urbani [1]: 0.5; Binding of serum 6 to looped/cyclic peptides of protein X4 of SARS-CoV Urbani [1]: 0.5; Binding of serum 37 to linear peptides of protein X4 of SARS-CoV Urbani [1]: 0.8; Binding of serum 37 to looped/cyclic peptides of protein X4 of SARS-CoV Urbani [1]: 0.7; Binding of serum 62 to linear peptides of protein X4 of SARS-CoV Urbani [1]: 0.8; Binding of serum 62 to looped/cyclic peptides of protein X4 of SARS-CoV Urbani [1]: 0.6; Binding of serum London to linear peptides of protein X4 of SARS-CoV Urbani [1]: 0.8; Binding of serum London to looped/cyclic peptides of protein X4 of SARS-CoV Urbani [1]: 0.4; Binding of serum SARS-green to linear peptides of protein X4 of SARS-CoV Urbani [1]: 0.7; Binding of serum SARS-green to looped/cyclic peptides of protein X4 of SARS-CoV Urbani [1]: 0.5; Binding of serum SARS-yellow to linear peptides of protein X4 of SARS-CoV Urbani [1]: 0.8; Binding of serum SARS-yellow to looped/cyclic peptides of protein X4 of SARS-CoV Urbani [1]: 0.4
PLLYDANYFVCWHTH | 0.6 | 0.7 | 0.6 | 0.6 | – | – | 0.9 | 0.6 | 0.8 | 0.6 | 0.6 | 0.4 | 0.6 | 0.8 | 0.8 | 0.4 | 0.4 | 0.5 | 0.1 | 0.5 | Binding of serum 6 to looped/cyclic peptide (PEPSCAN-ELISA) [1]: 0.4; Binding of serum 37 to looped/cyclic peptide (PEPSCAN-ELISA) [1]: 0.7; Binding of serum 62 to looped/cyclic peptide (PEPSCAN-ELISA) [1]: 0.7; Binding of serum London to looped/cyclic peptide (PEPSCAN-ELISA) [1]: 0.2; Binding of serum SARS-green to looped/cyclic peptide (PEPSCAN-ELISA) [1]: 0.3; Binding of serum SARS-yellow to looped/cyclic peptide (PEPSCAN-ELISA) [1]: 0.4
PLQASLPFGWLVIGV | 0.7 | 0.8 | 0.9 | 0.5 | – | – | 0.8 | 0.5 | 0.5 | 0.3 | 0.5 | 0.4 | 0.5 | 0.7 | 0.7 | 0.3 | 0.4 | 0.6 | 0.1 | 0.4 | Binding of serum 6 to looped/cyclic peptide (PEPSCAN-ELISA) [1]: 0.4; Binding of serum 37 to looped/cyclic peptide (PEPSCAN-ELISA) [1]: 0.5; Binding of serum 62 to looped/cyclic peptide (PEPSCAN-ELISA) [1]: 0.7; Binding of serum London to looped/cyclic peptide (PEPSCAN-ELISA) [1]: 0.2; Binding of serum SARS-green to looped/cyclic peptide (PEPSCAN-ELISA) [1]: 0.3; Binding of serum SARS-yellow to looped/cyclic peptide (PEPSCAN-ELISA) [1]: 0.4
PPNVQIHTIDGSSGV | 0.5 | 0.5 | 0.5 | 0.7 | – | – | 0.6 | – | 0.5 | – | 0.4 | – | 0.4 | 0.7 | 0.6 | 0.3 | 0.3 | 0.4 | 0.1 | 0.5 | Binding of serum 1a to looped/cyclic peptides of protein X1 of SARS-CoV Urbani [1]: 0.5; Binding of serum 1b to looped/cyclic peptides of protein X1 of SARS-CoV Urbani [1]: 0.4; Binding of serum 2 to looped/cyclic peptides of protein X1 of SARS-CoV Urbani [1]: 0.3; Binding of serum 6 to looped/cyclic peptides of protein X1 of SARS-CoV Urbani [1]: 0.4; Binding of serum 37 to looped/cyclic peptides of protein X1 of SARS-CoV Urbani [1]: 0.6; Binding of serum 62 to looped/cyclic peptides of protein X1 of SARS-CoV Urbani [1]: 0.5; Binding of serum London to looped/cyclic peptides of protein X1 of SARS-CoV Urbani [1]: 0.2; Binding of serum SARS-green to looped/cyclic peptides of protein X1 of SARS-CoV Urbani [1]: 0.4; Binding of serum SARS-yellow to looped/cyclic peptides of protein X1 of SARS-CoV Urbani [1]: 0.3
